From patent US9428758B2 (priority 2011, dated 2016)
“Also recorded” adds a separate entry of the source.

How the values were obtained:
yeast cells = details: cited from earlier work
Arabidopsis seedlings = test system: Arabidopsis seedlings; parameters: species or system Arabidopsis thaliana; details: in vivo
BY4743 yeast cells = format: cell-based
[1] = test system: mitochondrial membrane potential (ψmito) in BY4743 yeast cells; format: cell-based

C/C=C\C(=O)O[C@@H]1C[C@H]2O[C@@H]3C=C(C)C(=O)C[C@]3(C)[C@]1(C)[C@]21CO1 [Tcin, trichothecin]
IC50 (yeast cells): 2500 nM
effect on root growth of the wild type (Arabidopsis seedlings): severely limited root growth; also recorded: severely restricts root initiation and elongation
growth against Tcin (BY4743 yeast cells): increasingly resistant to Tcin
growth against Tcin relative to cells carrying the vector alone (BY4743 yeast cells): more sensitive to Tcin
growth against Tcin relative to cells containing the vector alone (BY4743 yeast cells): provided resistance
change of ψmito with increasing concentrations of Tcin [1]: did not change much

COc1ccc(C[C@H]2NC[C@H](O)[C@H]2OC(C)=O)cc1 [anisomycin]
shift in growth sensitivity relative to cells carrying the vector alone (BY4743 yeast cells): no significant shift in growth sensitivity

O=C(N[C@H](CO)[C@H](O)c1ccc([N+](=O)[O-])cc1)C(Cl)Cl [chloramphenicol]
shift in growth sensitivity relative to cells carrying the vector alone (BY4743 yeast cells): no significant shift in growth sensitivity

C[C@@H]1C[C@@H]([C@H](O)CC2CC(=O)NC(=O)C2)C(=O)[C@@H](C)C1 [cycloheximide]
shift in growth sensitivity relative to cells carrying the vector alone (BY4743 yeast cells): no significant shift in growth sensitivity
